The text below walks through data of publication PMC10763615, “Identification and engineering of potent cyclic peptides with selective or promiscuous binding through biochemical profiling and bioinformatic data analysis” (RSC Chemical Biology, 2023).

Holding throughout (format): binding
One test addresses T1, FGF-R1C ECD (Homo sapiens, UniProt P11362).
T1 sequence (P11362 22-376 limits assumed): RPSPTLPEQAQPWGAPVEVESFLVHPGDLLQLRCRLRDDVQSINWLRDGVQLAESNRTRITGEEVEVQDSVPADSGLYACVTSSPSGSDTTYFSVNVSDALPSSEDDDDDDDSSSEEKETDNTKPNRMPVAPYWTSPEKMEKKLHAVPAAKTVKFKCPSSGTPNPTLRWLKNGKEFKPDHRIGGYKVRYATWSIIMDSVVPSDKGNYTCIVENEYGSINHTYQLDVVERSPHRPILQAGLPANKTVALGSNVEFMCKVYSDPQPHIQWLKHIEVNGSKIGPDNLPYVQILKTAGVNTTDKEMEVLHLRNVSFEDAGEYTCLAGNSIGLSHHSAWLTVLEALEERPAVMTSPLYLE
Kind of test: biochemical. On the set-up: DNA constructs for the extracellular domain (ECD) of human FGF-; HPC4 (C); made in house; host or cells: HEK 293-6E. Put shortly: (§1)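 Biotinylated FGF-R ECD on streptavidin biosensors was dipped into ~1 μM crude peptide in PBS pH7.4 with 0.05% Tween-20 and 0.01% BSA for association, then into buffer for dissociation, and followed by BLI. Fitted KD values were adjusted for peptide concentration measured by UPLC-CAD.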

For a further test, the target named is T2, FGF-R3C ECD (Homo sapiens, UniProt P22607).
T2 sequence (P22607 23-375 limits assumed): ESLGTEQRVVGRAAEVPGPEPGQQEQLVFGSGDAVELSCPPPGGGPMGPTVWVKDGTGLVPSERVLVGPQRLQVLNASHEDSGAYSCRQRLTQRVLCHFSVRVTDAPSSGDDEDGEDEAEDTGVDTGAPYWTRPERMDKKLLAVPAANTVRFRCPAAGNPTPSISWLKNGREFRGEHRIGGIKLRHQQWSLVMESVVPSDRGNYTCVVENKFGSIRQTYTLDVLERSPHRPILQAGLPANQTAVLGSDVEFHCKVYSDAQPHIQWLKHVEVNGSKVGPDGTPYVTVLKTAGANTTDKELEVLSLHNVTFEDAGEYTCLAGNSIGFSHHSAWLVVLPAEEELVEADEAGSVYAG
Kind of test: biochemical. On the set-up: DNA constructs for the extracellular domain (ECD) of human FGF-; HPC4 (C); made in house; host or cells: HEK 293-6E. In a few lines:
as §1

Another test has as its target T3, FGF-R4 ECD (Homo sapiens, UniProt P22455).
T3 construct: DNA constructs for the extracellular domain (ECD) of human FGF-; HPC4 (C); made in house; host or cells: HEK 293-6E
T3 sequence (P22455 22-369 limits assumed): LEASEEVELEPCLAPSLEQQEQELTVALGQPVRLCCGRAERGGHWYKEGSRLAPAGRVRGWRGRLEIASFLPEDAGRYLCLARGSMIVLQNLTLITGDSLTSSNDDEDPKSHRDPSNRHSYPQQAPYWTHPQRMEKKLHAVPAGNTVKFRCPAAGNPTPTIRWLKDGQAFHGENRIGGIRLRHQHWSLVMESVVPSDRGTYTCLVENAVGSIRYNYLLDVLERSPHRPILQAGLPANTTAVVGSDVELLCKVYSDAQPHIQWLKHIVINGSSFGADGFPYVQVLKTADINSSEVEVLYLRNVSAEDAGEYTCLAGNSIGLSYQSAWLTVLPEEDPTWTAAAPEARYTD
Kind of test: single concentration BLI of crude peptides. The note with it: read-out: KD (4). In a few lines: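 Streptavidin biosensors carrying biotinylated FGF receptor ECD were immersed in peptide (~1 μM for crude single-point runs, a concentration series for purified peptides) and then in peptide-free buffer. KD was obtained by fitting the BLI association and dissociation curves.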

Where [1] appears, read: crude T18 selection 1 (1:1:1) peptides, single concentration BLI (Table S4).
Where [2] appears, read: crude NNK peptides, single concentration BLI (Table S3).

Where two headings read alike, the source gives them in different places. Positions of bridges follow the written chain, without caps; N, C: chain ends. Residues, ends and D or L forms follow the SMILES beside them. Where only a bound is given, the exact number is not on record here.

As for `CSCC[C@H](NC(C)=O)C(=O)N[C@H]1CSSC[C@@H](C(=O)NCC(=O)N[C@@H](CO)C(=O)NCC(=O)N[C@@H](CO)C(=O)N[C@@H](CCC(=O)O)C(=O)N[C@@H](CCC(=O)O)C(=O)NCC(=O)N[C@@H](CO)C(=O)NCC(=O)N[C@@H](CO)C(=O)N[C@@H](CC(=O)O)C(=O)N[C@@H](Cc2ccc(O)cc2)C(=O)N[C@@H](CCCCN)C(=O)N[C@@H](CC(=O)O)C(=O)N[C@@H](CC(=O)O)C(=O)N[C@@H](CC(=O)O)C(=O)N[C@@H](CC(=O)O)C(=O)N[C@@H](CCCCN)C(N)=O)NC(=O)[C@H](CCCCN)NC(=O)[C@H](CCCCN)NC(=O)[C@H](CCC(N)=O)NC(=O)[C@H](Cc2ccc(O)cc2)NC(=O)[C@H](CCCCN)NC(=O)[C@H](Cc2ccc(O)cc2)NC(=O)[C@H](Cc2c[nH]c3ccccc23)NC(=O)[C@H](CC(C)C)NC(=O)[C@H](C(C)C)NC(=O)[C@H]([C@@H](C)O)NC(=O)[C@H](Cc2ccc(O)cc2)NC1=O` (Ac-MCYTVLWYKYQKKCGSGSEEGSGSDYKDDDDK-NH2; disulfide 2-14), the dissociation constant (Kd) is more than 10 µM at FGF-R1C ECD, more than 10 µM on FGF-R3C ECD and 0.001 µM on FGF-R4 ECD (setting [1]).
Take `CSCC[C@H](NC(C)=O)C(=O)N[C@H]1CSSC[C@@H](C(=O)NCC(=O)N[C@@H](CO)C(=O)NCC(=O)N[C@@H](CO)C(=O)N[C@@H](CC(=O)O)C(=O)N[C@@H](Cc2ccc(O)cc2)C(=O)N[C@@H](CCCCN)C(=O)N[C@@H](CC(=O)O)C(=O)N[C@@H](CC(=O)O)C(=O)N[C@@H](CC(=O)O)C(=O)N[C@@H](CC(=O)O)C(=O)N[C@@H](CCCCN)C(N)=O)NC(=O)[C@H](Cc2ccc(O)cc2)NC(=O)[C@H](C(C)C)NC(=O)[C@H](CC(C)C)NC(=O)[C@H](C(C)C)NC(=O)[C@H](CCCCN)NC(=O)[C@H](CC(N)=O)NC(=O)[C@H](CC(C)C)NC(=O)[C@H](Cc2ccccc2)NC(=O)[C@H](CC(N)=O)NC(=O)[C@H](Cc2ccc(O)cc2)NC(=O)[C@H](Cc2ccc(O)cc2)NC1=O` (Ac-MCYYNFLNKVLVYCGSGSDYKDDDDK-NH2; disulfide 2-14): the Kd is more than 10 µM at FGF-R1C ECD, more than 10 µM on FGF-R3C ECD and 0.008 µM on FGF-R4 ECD (setting [1]).
On to `CSCC[C@H](NC(C)=O)C(=O)N[C@@H](CCSC)C(=O)N[C@@H](CO)C(=O)N[C@@H](Cc1c[nH]cn1)C(=O)N[C@H]1CSSC[C@@H](C(=O)NCC(=O)N[C@@H](CO)C(=O)NCC(=O)N[C@@H](CO)C(=O)N[C@@H](CC(=O)O)C(=O)N[C@@H](Cc2ccc(O)cc2)C(=O)N[C@@H](CCCCN)C(=O)N[C@@H](CC(=O)O)C(=O)N[C@@H](CC(=O)O)C(=O)N[C@@H](CC(=O)O)C(=O)N[C@@H](CC(=O)O)C(=O)N[C@@H](CCCCN)C(N)=O)NC(=O)[C@H](CC(C)C)NC(=O)[C@H](CC(C)C)NC(=O)[C@H](C(C)C)NC(=O)[C@H](CCCCN)NC(=O)[C@H](Cc2ccccc2)NC(=O)[C@H](CC(C)C)NC(=O)[C@H](Cc2c[nH]c3ccccc23)NC1=O` (Ac-MMSHCWLFKVLLCGSGSDYKDDDDK-NH2; disulfide 5-13), for which the Kd on FGF-R1C ECD was more than 10 µM; at FGF-R3C ECD, more than 10 µM; on FGF-R4 ECD (setting [2]), 0.239 µM.
Take `CC[C@H](C)[C@@H]1NC(=O)[C@H](Cc2ccc(O)cc2)NC(=O)[C@H](C)NC(=O)[C@H](CC(C)C)NC(=O)[C@H](Cc2c[nH]c3ccccc23)NC(=O)[C@@H](NC(=O)[C@H](CCCCN)NC(=O)[C@@H](NC(=O)[C@H](CCSC)NC(=O)[C@H](CCSC)NC(C)=O)C(C)C)CSSC[C@@H](C(=O)NCC(=O)N[C@@H](CO)C(=O)NCC(=O)N[C@@H](CO)C(=O)N[C@@H](CC(=O)O)C(=O)N[C@@H](Cc2ccc(O)cc2)C(=O)N[C@@H](CCCCN)C(=O)N[C@@H](CC(=O)O)C(=O)N[C@@H](CC(=O)O)C(=O)N[C@@H](CC(=O)O)C(=O)N[C@@H](CC(=O)O)C(=O)N[C@@H](CCCCN)C(N)=O)NC(=O)[C@H]([C@@H](C)O)NC(=O)[C@H](CCCNC(=N)N)NC1=O` (Ac-MMVKCWLAYIRTCGSGSDYKDDDDK-NH2; disulfide 5-13): the dissociation constant (Kd) at FGF-R1C ECD, on FGF-R3C ECD and on FGF-R4 ECD (setting [2]) was more than 10 µM throughout.
As to `CC[C@H](C)[C@@H]1NC(=O)[C@H](Cc2ccccc2)NC(=O)[C@@H]2CCCN2C(=O)[C@H](CC(C)C)NC(=O)[C@H](Cc2ccccc2)NC(=O)[C@H](CC(C)C)NC(=O)[C@H](CC(=O)O)NC(=O)[C@H](Cc2ccccc2)NC(=O)[C@H]([C@@H](C)O)NC(=O)[C@@H](NC(=O)[C@@H](N)CCSC)CSSC[C@@H](C(=O)NCC(=O)N[C@@H](CO)C(=O)NCC(=O)N[C@@H](CO)C(=O)N[C@@H](CC(=O)O)C(=O)N[C@@H](Cc2ccc(O)cc2)C(=O)N[C@@H](CCCCN)C(=O)N[C@@H](CC(=O)O)C(=O)N[C@@H](CC(=O)O)C(=O)N[C@@H](CC(=O)O)C(=O)N[C@@H](CC(=O)O)C(=O)N[C@@H](CCCCN)C(N)=O)NC(=O)[C@H](Cc2ccccc2)NC1=O` (H-MCTFDLFLPFIFCGSGSDYKDDDDK-NH2; disulfide 2-13), the values for the Kd at FGF-R1C ECD, at FGF-R3C ECD and at FGF-R4 ECD (setting [2]) were more than 10 µM, 0.177 µM and more than 10 µM, respectively.
Regarding `CC[C@H](C)[C@@H]1NC(=O)[C@H](Cc2ccccc2)NC(=O)[C@@H]2CCCN2C(=O)[C@H](Cc2ccccc2)NC(=O)[C@H](Cc2c[nH]cn2)NC(=O)[C@H]([C@@H](C)O)NC(=O)[C@H](CC(=O)O)NC(=O)[C@H](Cc2ccccc2)NC(=O)[C@H]([C@@H](C)O)NC(=O)[C@@H](NC(=O)[C@@H](N)CCSC)CSSC[C@@H](C(=O)NCC(=O)N[C@@H](CO)C(=O)NCC(=O)N[C@@H](CO)C(=O)N[C@@H](CC(=O)O)C(=O)N[C@@H](Cc2ccc(O)cc2)C(=O)N[C@@H](CCCCN)C(=O)N[C@@H](CC(=O)O)C(=O)N[C@@H](CC(=O)O)C(=O)N[C@@H](CC(=O)O)C(=O)N[C@@H](CC(=O)O)C(=O)N[C@@H](CCCCN)C(N)=O)NC(=O)[C@H]([C@@H](C)O)NC1=O` (H-MCTFDTHFPFITCGSGSDYKDDDDK-NH2; disulfide 2-13), the results for the Kd on FGF-R1C ECD, on FGF-R3C ECD and at FGF-R4 ECD (setting [2]) were more than 10 µM, 0.287 µM and more than 10 µM, respectively.
Take `CC[C@H](C)[C@@H]1NC(=O)[C@@H]2CCCN2C(=O)[C@H](CC(C)C)NC(=O)[C@@H]2CCCN2C(=O)[C@H](Cc2c[nH]c3ccccc23)NC(=O)[C@@H]2CCCN2C(=O)[C@H](Cc2ccccc2)NC(=O)[C@H](CCCCN)NC(=O)[C@H]([C@@H](C)O)NC(=O)[C@@H](NC(=O)[C@@H](N)CCSC)CSSC[C@@H](C(=O)NCC(=O)N[C@@H](CO)C(=O)NCC(=O)N[C@@H](CO)C(=O)N[C@@H](CC(=O)O)C(=O)N[C@@H](Cc2ccc(O)cc2)C(=O)N[C@@H](CCCCN)C(=O)N[C@@H](CC(=O)O)C(=O)N[C@@H](CC(=O)O)C(=O)N[C@@H](CC(=O)O)C(=O)N[C@@H](CC(=O)O)C(=O)N[C@@H](CCCCN)C(N)=O)NC(=O)[C@H](C)NC(=O)[C@H](Cc2c[nH]c3ccccc23)NC(=O)[C@H](Cc2ccccc2)NC1=O` (H-MCTKFPWPLPIFWACGSGSDYKDDDDK-NH2; disulfide 2-15): the Kd on FGF-R1C ECD was 0.545 µM; on FGF-R3C ECD, more than 10 µM; at FGF-R4 ECD (setting [2]), 0.346 µM.
Take `CSCC[C@H](N)C(=O)N[C@H]1CSSC[C@@H](C(=O)NCC(=O)N[C@@H](CO)C(=O)NCC(=O)N[C@@H](CO)C(=O)N[C@@H](CC(=O)O)C(=O)N[C@@H](Cc2ccc(O)cc2)C(=O)N[C@@H](CCCCN)C(=O)N[C@@H](CC(=O)O)C(=O)N[C@@H](CC(=O)O)C(=O)N[C@@H](CC(=O)O)C(=O)N[C@@H](CC(=O)O)C(=O)N[C@@H](CCCCN)C(N)=O)NC(=O)[C@H](CC(C)C)NC(=O)[C@H](C(C)C)NC(=O)[C@H](Cc2ccccc2)NC(=O)[C@@H]2CCCN2C(=O)[C@H](CC(C)C)NC(=O)[C@H](Cc2ccccc2)NC(=O)[C@H](CO)NC(=O)[C@H](CC(=O)O)NC(=O)[C@H](Cc2ccccc2)NC(=O)[C@H](C(C)C)NC1=O` (H-MCVFDSFLPFVLCGSGSDYKDDDDK-NH2; disulfide 2-13): the Kd on FGF-R1C ECD was more than 10 µM; on FGF-R3C ECD, 0.06 µM; at FGF-R4 ECD (setting [2]), more than 10 µM.

What is called Kd is the equilibrium constant for the complex coming apart.
